Experimental data as given in PMC11009412, “Pathogenic mutations of human phosphorylation sites affect protein–protein interactions” (Nature Communications, 2024).
Where “and” joins values, the source holds several entries; their conditions need not be identical. Identical values can stand only once. Each block holds one molecule with its values, some of them ahead of it. Non-standard residues stand in square brackets, D forms with d. Residues, ends and D or L forms follow the SMILES beside them. pS = N[C@@H](COP(=O)(O)O)C(=O)O

Experiments:
14-3-3 epsilon (YWHAE) = target: T1, 14-3-3 epsilon (YWHAE) (Homo sapiens, UniProt P62258); assay: Isothermal titration calorimetry (ITC) of GATAD1 peptides with 14-3-3ε; assay type: binding; details: 18 °C, 400 µM peptide in syringe, 25 µM 14-3-3ε in chamber, 20 mM HEPES pH 7.0, 150 mM NaCl, 2 mM DTT
T1 construct: residues 1 and 236-255 are disordered and therefore not visible in the electron density; GST (N, cleaved yes); made in house; host or cells: Escherichia coli C41 (DE3)
T1 sequence (P62258 1-255): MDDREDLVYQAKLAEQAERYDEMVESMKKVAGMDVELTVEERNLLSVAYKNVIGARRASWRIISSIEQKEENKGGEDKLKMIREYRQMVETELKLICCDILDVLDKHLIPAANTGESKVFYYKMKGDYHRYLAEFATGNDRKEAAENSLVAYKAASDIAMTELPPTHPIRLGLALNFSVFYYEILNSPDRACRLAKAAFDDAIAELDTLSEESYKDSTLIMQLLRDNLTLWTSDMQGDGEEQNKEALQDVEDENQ
Method: The 14-3-3ε (YWHAE) cDNA was purchased from Twist Bioscience in the pTwist Chlor High Copy vector and cloned into the pGEX6P1 plasmid (GE Healthcare) for recombinant expression as a GST-fusion protein followed by a Prescission protease cleavage site. The plasmid was freshly transformed into Escherichia coli C41 (DE3) cells. Cultures were grown in terrific broth supplemented with ampicillin (100 μg/ml) at 37 °C and 80 rpm until an optical density at 600 nm of 0.7 was reached. […] Cells were harvested by centrifugation at 4000 g and frozen at −20 °C.
Following resuspension in lysis buffer (50 mM HEPES/NaOH pH 7.5, 500 mM NaCl and 3 mM Dithiothreitol (DTT)) supplemented with 1 mg deoxyribonuclease I (DNaseI, Roche) and protease inhibitor 4-(2-Aminoethyl) benzenesulfonyl fluoride hydrochloride S7(AEBSF), cells were disrupted using a microfluidizer (Microfluidics). The cell extract was centrifuged at 55,000 g for 45 min at 4 °C to remove insoluble parts. The cleared supernatant was applied onto a prepacked Glutathione Sepharose 4B column (Cytiva) equilibrated in the lysis buffer. The column was extensively washed with lysis buffer. To cleave off the GST tag, 1 mg PreScission protease was diluted in 5 ml OCC buffer (50 mM HEPES/NaOH pH 7.5, 150 mM NaCl, and 3 mM DTT), applied to the column material, and incubated overnight at 4 °C. Cleaved 14-3-3ε protein was eluted from the column using OCC buffer, concentrated and loaded onto an 16/60 S200 column (Cytiva) equilibrated in SEC buffer (20 mM HEPES/NaOH pH 7.5, 150 mM NaCl and 2 mM DTT). Pure and homogenous 14-3-3ε was concentrated to 13 mg/ml, flash-frozen in liquid nitrogen, and stored at −80 °C until further use.
GATAD1 peptides used in these experiments were obtained from JPT peptide technologies with an N-terminus in amine and a C-terminus in amide form with 95% purity. ITC experiments were performed using a PEAQ-ITC microcalorimeter (Malvern). All titrations were performed at 18 °C with 400 µM peptide in the syringe and 25 µM 14-3-3ε in the reaction chamber. The protein and the titration components were dissolved in a buffer containing 20 mM HEPES pH 7.0, 150 mM NaCl, and 2 mM DTT. Malvern software was used for data visualization and fitting. The raw ITC results can be found in Supplementary Fig. 42.

14-3-3 family proteins = assay: PRISMA peptide pull-down screen, 14-3-3 binding to GATAD1 peptides; design: species or system human; details: LFQ volcano plot and SILAC scatter plot; HEK-293 lysate, triplicates
Text: (§1) A total of 117 peptides, consisting of 15 amino acids each, were synthesized in situ on a cellulose membrane using SPOT synthesis techniques[25] provided by JPT Peptide Technologies in Berlin, Germany. Among these peptides, 39 were wild-type non-phosphorylated, 39 were mutated, and 39 were phosphorylated. Whenever possible, the mutation site was positioned at position 7, which is in the center of the immobilized peptides, with their C-termini serving as the point of immobilization.
(§2) For the experimental procedure, three membranes were initially incubated with the lysis buffer (HEPES (50 mM, pH 7.9), NaCl (150 mM), EGTA (1 mM), MgCl2 (1 mM), glycerol (20%), NP-40 (1%), SDS (0.1%), and sodium deoxycholate (0.5%)). The membranes were incubated with the lysis buffer until completely moistened. […]
(§3) HEK-293 cells were lysed with the lysis buffer and the protein concentration was measured using DC protein assay (Bio-Rad). […]
(§4) During the analysis, peptides were eluted from the analytical column at a flow rate of 500 nl/min, employing a gradient as follows: 5 to 10% B over 5 min, 10 to 40% B over 60 min, 40 to 99% B over 5 min, and maintaining 99% B for 5 min. The samples were measured in the orbitrap fusion mass spectrometer using the following methods: a full scan was performed with a resolution of 120,000 over an m/z range of 300–1500. […]

[1] = test system: 14-3-3 proteins (beta/alpha, gamma, epsilon, zeta, eta and theta); assay: Alanine scanning PRISMA pull-down, 14-3-3 proteins; assay type: binding, human; details: PRISMA pull-down from HEK-293T lysate, LFQ, triplicates
Text: In this experiment, each amino acid from the −5 to +5 positions surrounding the phosphorylated residue was mutated to alanine, except for original alanine residues which were mutated to glycine. The experiment also included the wild-type phosphorylated, wild-type non-phosphorylated, disease-associated mutant, and aspartic acid mutant peptides. These 15 peptides were synthesized on a cellulose membrane in triplicates (n = 3 biological replicates) to facilitate the pull-down of proteins from HEK-293T cell lysate. The synthesis of peptides, pull-downs, and sample preparation for mass spectrometry followed the procedures described earlier for the PRISMA screen. Subsequently, samples were eluted from StageTips using a solution containing 50% acetonitrile and 0.1% formic acid, dried, and resuspended in a solution containing 3% acetonitrile and 0.1% formic acid. […]
The acquired mass spectra were subjected to further analysis using MaxQuant (version 1.6.3.4). […] The LFQ values of significant proteins were z-scored by row and hierarchical clustering was performed (Fig. 6A and Supplementary Data 5). To better visualize the 14-3-3 proteins, their LFQ values were extracted from the whole table and were z scored and clustered individually (Fig. 5C).

GRB2 = assay: PRISMA peptide pull-down screen, GRB2 binding to the EGFR control peptide; design: species or system human; details: PRISMA pull-down from SILAC-labelled HEK-293 lysate; in all three replicates
Text: as §1, §2, §3, §4

- N (stoichiometry) by ITC (14-3-3 epsilon (YWHAE)): 1.42 ± 0.04
- Kd (14-3-3 epsilon (YWHAE); PEAQ-ITC, peptides N-terminal amine, C-terminal amide, read-out: Kd (binding constant) by ITC): ~3 µM and 3.4 µM
Molecule: CC(C)C[C@H](N)C(=O)N[C@@H](CCCNC(=N)N)C(=O)N[C@@H](CC(N)=O)C(=O)N[C@H](C(=O)N[C@@H](CCCCN)C(=O)N[C@@H](Cc1ccc(O)cc1)C(=O)N[C@@H](CCCCN)C(=O)N[C@@H](COP(=O)(O)O)C(=O)N[C@@H](C)C(=O)N1CCC[C@H]1C(=O)N[C@@H](C)C(=O)N[C@@H](C)C(=O)N[C@@H](CCC(=O)O)C(=O)N[C@@H](CCCCN)C(=O)N[C@@H](CCCCN)C(N)=O)[C@@H](C)O [GATAD1_phos] (H-LRNTKYK[pS]APAAEKK-NH2)
- Specific and differential binding of 14-3-3 proteins in PRISMA (in words) (14-3-3 family proteins): specifically interacts with the multiple 14-3-3 protein family members

- Interaction with 14-3-3ε by ITC (in words) (14-3-3 epsilon (YWHAE)): do not interact
Molecule: LRNTKYKDAPAAEKK [S102D, phosphomimetic S102D mutant GATAD1 peptide]
- 14-3-3 proteins pulled down in alanine scanning (in words) [1]: did not interact

- SILAC ratio phos/mut of GRB2 (GRB2): > 20
- SILAC ratio phos/wt of GRB2 (GRB2): > 20
Molecule: TFLPVPEpYINQSVPK [EGFR_phos, positive control, well-characterized EGFR-derived phosphopeptide]
